In PubChem BioAssay AID2180 (Vanderbilt High Throughput Screening Facility, 2009) one finds Potency data, which are given here for seven compounds.

Calls of active or inactive are those of the source. No rule for the calls is given here.

For the assay, the target named is Metabotropic glutamate receptor 4 (Homo sapiens) (UniProt Q14833). The experiment in a line: PubChem AID 2180. The following applies: CHO hmGluR4/Gqi5, calcium mobilization, glutamate CRC fold-shift.
Metabotropic glutamate receptor 4 (Homo sapiens), sequence (Q14833 whole entry, looked up): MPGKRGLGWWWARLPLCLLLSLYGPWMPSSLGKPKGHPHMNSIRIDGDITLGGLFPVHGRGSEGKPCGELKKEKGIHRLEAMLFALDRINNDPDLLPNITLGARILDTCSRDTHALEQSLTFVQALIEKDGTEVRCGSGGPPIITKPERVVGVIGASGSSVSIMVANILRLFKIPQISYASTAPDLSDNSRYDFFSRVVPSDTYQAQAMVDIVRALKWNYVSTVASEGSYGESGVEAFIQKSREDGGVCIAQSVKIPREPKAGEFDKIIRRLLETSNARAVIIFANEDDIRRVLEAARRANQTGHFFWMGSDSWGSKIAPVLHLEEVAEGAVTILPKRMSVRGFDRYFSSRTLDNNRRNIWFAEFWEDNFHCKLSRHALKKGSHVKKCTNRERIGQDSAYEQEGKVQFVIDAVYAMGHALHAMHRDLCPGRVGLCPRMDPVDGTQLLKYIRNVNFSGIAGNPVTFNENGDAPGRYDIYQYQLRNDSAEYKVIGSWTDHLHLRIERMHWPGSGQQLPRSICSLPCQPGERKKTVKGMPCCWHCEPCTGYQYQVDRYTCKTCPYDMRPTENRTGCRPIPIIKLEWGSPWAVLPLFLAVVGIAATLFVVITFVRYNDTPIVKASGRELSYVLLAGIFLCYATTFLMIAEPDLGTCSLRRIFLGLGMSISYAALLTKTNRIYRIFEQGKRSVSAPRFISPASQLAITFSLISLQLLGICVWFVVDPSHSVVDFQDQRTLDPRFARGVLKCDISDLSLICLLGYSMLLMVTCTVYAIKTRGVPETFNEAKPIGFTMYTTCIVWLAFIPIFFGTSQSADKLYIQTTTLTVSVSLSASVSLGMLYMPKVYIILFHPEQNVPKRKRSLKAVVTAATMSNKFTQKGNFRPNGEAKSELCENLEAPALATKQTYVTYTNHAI
Regarding `O=C(Nc1cccc(Cl)c1)c1ccccn1`, the Potency is 601 nM.
On to `COc1cc(NC(=O)c2ccccn2)ccc1F`, for which the Potency is 604 nM.
Regarding `COc1ccc(NC(=O)c2ccccn2)cc1Cl`, the Potency is 1600 nM.
Take `O=C(Nc1ccc(F)c(C(F)(F)F)c1)c1ccccn1`: the Potency is 5160 nM (inactive).
Turning to `O=C(Nc1ccc(Cl)c(C(F)(F)F)c1)c1ccccn1`, the Potency was 6060 nM (inactive).
With `COc1cc(NC(=O)c2ccccn2)ccc1Cl`, the Potency is 381 nM.
Regarding `COc1cc(NC(=O)c2ccccn2)ccc1C`, the Potency is 641 nM.
